Reference: paper PMC9973260, “Emergence of an Auxin Sensing Domain in Plant-Associated Bacteria” (mBio, 2023)

Experiments:
[1] = biological target: T1, AdmX-LBD (Serratia plymuthica, UniProt P0DV33, C100S); assay: isothermal titration calorimetry; type: binding; conditions: read-out: dissociation constant
T1 construct: fast monomer-dimer equilibrium shifted toward dimer, dimer in crystal
T1 sequence (P0DV33 69-295 C100S): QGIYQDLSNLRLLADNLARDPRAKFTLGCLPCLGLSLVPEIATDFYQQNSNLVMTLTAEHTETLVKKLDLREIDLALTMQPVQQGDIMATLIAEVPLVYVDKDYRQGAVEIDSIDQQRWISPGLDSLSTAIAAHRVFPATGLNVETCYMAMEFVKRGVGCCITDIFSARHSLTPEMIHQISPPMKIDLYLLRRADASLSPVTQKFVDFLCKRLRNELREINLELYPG

[2] = biological target: T2, AdmX-LBD (Serratia plymuthica, UniProt P0DV33, E213Q); assay: isothermal titration calorimetry; type: binding; conditions: read-out: dissociation constant
T2 construct: fast monomer-dimer equilibrium shifted toward dimer, dimer in crystal
T2 sequence (P0DV33 69-295 E213Q): T1 sequence (P0DV33 69-295 C100S)

SMILES	Kd [1] [µM]	Kd [2] [µM]
O=C(O)Cc1c[nH]c2ccccc12 [indole-3-acetic acid]	51 ± 3.4	23.9 ± 2.4
O=C(O)C(=O)Cc1c[nH]c2ccccc12 [indole-3-pyruvic acid]	31.5 ± 1.6	6 ± 0.7
